SMILES strings stand for the structures. Counter-ions that a name gives are not always drawn.

One data set concerns the target T1, αIIbβ3 integrin (Homo sapiens, UniProt P05106+P08514).
T1 construct: Human Platelets: Platelet-enriched plasma was obtained commercially from a donor pool; from tissue; host or cells: human platelet-rich plasma from a commercial donor pool
The data set can be described thus: ADP-Induced Platelet Aggregation. The format is cell-based. Particulars: Table VII; for IC50: ADP 20 uM, human platelets, read-out: Platelet Aggregation αIIbβ3 IC50. Here is the method: Measurement of the Effect of Compounds on ADP-Induced Platelet Aggregation
Measuring the effect of compounds on ADP-induced platelet aggregation mediated by a fibrinogen-αIIbβ3 integrin interaction.
Human Platelets: Platelet-enriched plasma was obtained commercially from a donor pool. The plasma was tested prior to shipment and found to be negative for HIV, HCV and Hepatitis B. Platelet-rich plasma (PRP) was obtained by diluting plasma to an approximate final concentration of 3×10(6) platelets per mL in platelet poor plasma (PPP). PPP was the supernatant of a lowspeed centrifugation of plasma.
Adenosine diphosphate (ADP): ADP was obtained commercially and diluted to 1 mM (stock solution) in distilled, deionized water (ddH2O).
Incubation: PRP and PPP were prewarmed in a water bath at 37° C. […] PRP plus sample compound in a final volume of 500 uL was added to a pre-warmed cuvette in a ChronoLog aggregometer. A control containing PRP and 5 uL of vehicle was treated similarly to the test cuvette; final vehicle concentration was 1%. The two cuvettes were incubated with stirring (1000 rpm) at 37° C. for 5 minutes. Five hundred microliters of PPP was used as a reference (100% aggregation).
Aggregation: To begin the test, ADP was added yielding a final concentration of 20 uM to both samples (plus and minus sample compound). Light transmittance was monitored continuously and compared to the reference cuvette. After five minutes, the test was terminated and the slope and maximal amplitude of the resulting aggregation plot was calculated by the aggregometer.
The percent of maximal aggregation is the ratio of the maximal aggregations of the sample cuvette to the control multiplied by 100 (% Max) and reported as the mean+−standard deviation.

Another data set concerns the target T2, αVβ3 integrin (Homo sapiens, UniProt P05106+P06756).
T2 construct: αVβ3-expressing cell lines are maintained by standard tissue culture techniques; endogenous in cells; host or cells: αVβ3-expressing cell lines
The data set can be described thus: Osteopontin-αVβ3 Cell Attachment Test Procedure. Particulars: for IC50: attachment of cells to osteopontin, read-out: (αVβ3) IC50 CELL ATTACHMENT
The data set is classed as cell-based. Here is the method: Osteopontin-αVβ3 Cell Attachment Test Procedure
Measuring the effect of compounds on the RGD-dependent attachment of cells to osteopontin mediated by the αVβ3 integrin.
Following incubation the wells were aspirated and washed once with D-PBS; plates can either be used immediately or stored for up to 1 week at 4° C. Prior to assay, the wells were blocked with 1% bovine serum albumin (BSA) in cell suspension media for 1 hour at 37° C. Following the blocking period, wells were aspirated and washed once with D-PBS.
αVβ3-expressing cell lines are maintained by standard tissue culture techniques. […] The cells were pelleted by low-speed centrifugation and washed three times with 0.5 mg/mL trypsin inhibitor in D-PBS (Sigma). The final cell pellet was resuspended in cell suspension media at a concentration of 10^6 cells/mL.
Incubation: 100 μL of diluted test compound was added to osteopontin-coated wells (in triplicate) followed by 100 μL of cell suspension; background cell attachment was determined in uncoated wells. The plate was incubated at 25° C. in a humidified air atmosphere for 1.5 hours. Following the incubation period, the wells were gently aspirated and washed once with D-PBS.
Cell Number Detection: The number of cells attached was determined by an MTT dye conversion assay (Promega) according to the manufacturer's instructions. Briefly, MTT dye was diluted in cell suspension media (15:85) and 100 μL was added to each well. […] The assay plates were covered and incubated at 37° C. in a humidified air atmosphere overnight.
The individual well optical density was expressed as a percentage of the maximal attachment (% Max) wells minus background attachment, and reported as the mean ±standard deviation.

Data set [1] has as its target T3, Vitronectin Receptor (αVβ3) (Homo sapiens, UniProt P05106+P06756).
T3 construct: expressed in transfected cells; host or cells: 512P5 cells (plasma membrane preparation)
In words: Vitronectin Receptor (αVβ3) Binding Test Procedure. Conditions: for IC50: read-out: (αVβ3) IC50 RECEPTOR BINDING.

In a further data set the test system is osteoclasts. The data set can be described thus: Osteoclast Bone Pitting. The format is cell-based, rat. The method, then: Osteoclast Bone Pitting The test procedure was conducted as described by R. J. Murrills and D. W. […] At this pH the adherent osteoclasts excavate an adequate number of resorption pits for assay purposes. Slices were fixed in 2.5% glutaraldehyde and osteoclasts counted following tartrate-resistant acid phosphatase staining. […] All cells were stripped from the slice by sonication on 0.25M NH4OH and the resorption pits formed by the osteoclasts during the experiment stained with toluidine blue. Resorption pits were quantified by manually counting. The experiments were conducted according to a block design with osteoclasts from each animal exposed to each treatment. Three replicate slices were used per treatment per animal, such that a total of 96 slices were examined for an experiment involving four animals and eight treatments (including control). Several parameters were recorded on a “per slice” basis: number of pits, number of osteoclasts, number of pits per osteoclast, number of fibroblast-like bone cells. SAS or JMP statistical software were used for statistical analysis. […] IC50s were calculated using dose-response curves.

Setting [2] is: @200 μM, percent of maximal aggregation.
The mark [3] stands for this setting: @ 30 μM, % Max = percentage of the specific binding, read-out: (αVβ3) RECEPTOR BINDING, % @ concentration.
Setting [4] is: @ 100 μM, % of maximal attachment, read-out: (αVβ3) CELL ATTACHMENT, % @ concentration.

T1 sequence (P08514 32-887 limits assumed): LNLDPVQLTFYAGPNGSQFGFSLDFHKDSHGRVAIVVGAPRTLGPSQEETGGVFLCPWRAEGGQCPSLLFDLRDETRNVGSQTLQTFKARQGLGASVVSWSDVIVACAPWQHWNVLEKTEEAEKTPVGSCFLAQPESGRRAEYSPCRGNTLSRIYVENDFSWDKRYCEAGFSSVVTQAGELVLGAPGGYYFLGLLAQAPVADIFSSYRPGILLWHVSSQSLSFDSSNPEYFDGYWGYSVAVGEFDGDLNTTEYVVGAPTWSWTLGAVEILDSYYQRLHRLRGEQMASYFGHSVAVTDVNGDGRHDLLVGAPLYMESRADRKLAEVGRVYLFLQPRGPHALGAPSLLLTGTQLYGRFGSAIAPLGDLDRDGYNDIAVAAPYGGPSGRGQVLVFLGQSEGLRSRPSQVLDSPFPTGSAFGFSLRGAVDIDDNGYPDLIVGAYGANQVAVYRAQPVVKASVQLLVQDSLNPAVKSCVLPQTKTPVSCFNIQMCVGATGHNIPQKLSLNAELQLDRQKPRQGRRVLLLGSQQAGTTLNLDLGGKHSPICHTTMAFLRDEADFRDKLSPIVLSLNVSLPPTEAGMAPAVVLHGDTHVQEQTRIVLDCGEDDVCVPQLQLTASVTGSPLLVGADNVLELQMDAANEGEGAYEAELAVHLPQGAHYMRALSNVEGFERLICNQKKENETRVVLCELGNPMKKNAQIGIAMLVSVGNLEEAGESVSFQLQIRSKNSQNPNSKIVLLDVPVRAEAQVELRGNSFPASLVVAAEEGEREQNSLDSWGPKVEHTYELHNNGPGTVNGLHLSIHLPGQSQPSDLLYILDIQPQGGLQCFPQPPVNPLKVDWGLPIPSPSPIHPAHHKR
T1 sequence (P08514 891-1039 partner limits assumed): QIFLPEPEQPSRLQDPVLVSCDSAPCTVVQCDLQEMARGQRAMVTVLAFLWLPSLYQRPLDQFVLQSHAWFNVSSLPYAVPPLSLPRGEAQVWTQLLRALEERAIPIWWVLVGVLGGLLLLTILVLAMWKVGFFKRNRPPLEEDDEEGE
T1 sequence (P05106 27-788): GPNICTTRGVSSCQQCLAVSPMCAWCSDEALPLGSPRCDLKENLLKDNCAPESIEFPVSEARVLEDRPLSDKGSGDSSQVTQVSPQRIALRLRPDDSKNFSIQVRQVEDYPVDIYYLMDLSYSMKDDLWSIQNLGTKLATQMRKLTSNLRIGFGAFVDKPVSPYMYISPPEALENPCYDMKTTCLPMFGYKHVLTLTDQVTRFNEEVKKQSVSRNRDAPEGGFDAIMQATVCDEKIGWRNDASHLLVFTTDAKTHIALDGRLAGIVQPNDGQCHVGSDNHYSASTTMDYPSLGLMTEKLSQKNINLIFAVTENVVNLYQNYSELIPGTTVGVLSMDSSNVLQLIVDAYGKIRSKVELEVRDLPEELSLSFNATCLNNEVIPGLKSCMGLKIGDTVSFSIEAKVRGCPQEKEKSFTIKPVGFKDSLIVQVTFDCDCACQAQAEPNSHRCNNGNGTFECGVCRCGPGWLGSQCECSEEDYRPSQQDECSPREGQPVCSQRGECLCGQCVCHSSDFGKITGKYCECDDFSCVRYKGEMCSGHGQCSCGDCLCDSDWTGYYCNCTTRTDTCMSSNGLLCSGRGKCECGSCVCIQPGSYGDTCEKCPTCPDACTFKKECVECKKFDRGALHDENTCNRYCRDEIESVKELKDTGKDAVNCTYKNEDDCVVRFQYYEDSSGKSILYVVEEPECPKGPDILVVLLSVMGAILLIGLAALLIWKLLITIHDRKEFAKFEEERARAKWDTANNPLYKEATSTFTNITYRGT
T2 sequence (P06756 31-889 limits assumed): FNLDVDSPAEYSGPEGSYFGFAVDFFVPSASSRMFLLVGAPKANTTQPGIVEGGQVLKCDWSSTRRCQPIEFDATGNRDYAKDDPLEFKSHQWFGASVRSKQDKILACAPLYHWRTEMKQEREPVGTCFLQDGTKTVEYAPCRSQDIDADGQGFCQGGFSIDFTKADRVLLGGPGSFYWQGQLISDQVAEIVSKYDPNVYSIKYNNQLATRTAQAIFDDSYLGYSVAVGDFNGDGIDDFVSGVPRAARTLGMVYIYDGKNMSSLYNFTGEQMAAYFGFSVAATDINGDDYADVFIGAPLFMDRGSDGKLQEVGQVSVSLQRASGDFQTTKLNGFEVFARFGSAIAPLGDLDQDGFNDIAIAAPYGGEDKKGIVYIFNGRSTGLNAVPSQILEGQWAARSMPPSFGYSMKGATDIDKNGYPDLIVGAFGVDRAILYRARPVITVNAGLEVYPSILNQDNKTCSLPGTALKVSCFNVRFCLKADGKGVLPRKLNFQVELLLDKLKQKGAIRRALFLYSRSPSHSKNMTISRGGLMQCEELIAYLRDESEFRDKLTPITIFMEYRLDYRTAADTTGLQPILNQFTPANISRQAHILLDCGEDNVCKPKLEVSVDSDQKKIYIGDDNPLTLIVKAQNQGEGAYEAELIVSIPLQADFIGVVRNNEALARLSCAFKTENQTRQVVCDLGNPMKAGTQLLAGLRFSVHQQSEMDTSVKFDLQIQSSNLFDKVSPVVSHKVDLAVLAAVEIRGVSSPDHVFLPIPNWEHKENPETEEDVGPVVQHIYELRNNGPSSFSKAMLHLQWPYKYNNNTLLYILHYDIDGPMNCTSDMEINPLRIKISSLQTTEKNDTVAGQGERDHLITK
T2 sequence (P06756 891-1048 partner limits assumed): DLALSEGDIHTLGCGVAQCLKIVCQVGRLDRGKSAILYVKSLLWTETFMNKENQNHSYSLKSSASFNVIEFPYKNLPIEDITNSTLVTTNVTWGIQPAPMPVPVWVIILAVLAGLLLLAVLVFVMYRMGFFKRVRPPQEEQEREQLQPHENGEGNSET
T2 sequence (P05106 27-788): as the sequence (P05106 27-788) above
T3 sequence (P06756 31-889 limits assumed): as the sequence (P06756 31-889 limits assumed) above
T3 sequence (P06756 891-1048 partner limits assumed): as the sequence (P06756 891-1048 partner limits assumed) above
T3 sequence (P05106 27-788): as the sequence (P05106 27-788) above

In turn, `CCn1c(=O)c(CC(=O)O)cc2ccc(OCCCN)cc21.O=C(O)C(F)(F)F` gave a melting point of 182 to 184 °C.

`NCCCOc1ccc2cc(CC(=O)O)c(=O)n(Cc3ccccc3)c2c1` (as salt: salt) [Example 136, [1-Benzyl-7-(3-amino-propoxy)-2-oxo-1,2-dihydro-quinolin-3-yl]-acetic Acid]: the melting point is 126 to 128 °C.

Consider `NCCCOc1ccc2c(c1)NC(=O)C(CC(=O)O)C2` (stereo not shown) (as salt: salt) [Example 205, [7-(3-Amino-propoxy)-2-oxo-1,2,3,4-tetrahydro-quinolin-3-yl]-acetic Acid], for which the melting point lay within 194 to 196 °C.

In turn, `N=C(N)NCCOc1ccc2c(c1)CC(CCC(=O)O)C(=O)N2` (stereo not shown) (as salt: salt) [Example 222, 3-[6-(2-Guanidino-ethoxy)-2-oxo-1,2,3,4-tetrahydro-quinolin-3-yl]-propionic Acid] gave a melting point of 119 to 122 °C.

Take `N=C(N)NCCCCOc1ccc2c(c1)CC(CC(=O)O)C(=O)N2` (stereo not shown) (as salt: salt) [Example 229, [6-(4-Guanidino-butoxy)-2-oxo-1,2,3,4-tetrahydro-quinolin-3-yl]-acetic Acid]: the melting point fell in the range of 170 to 173 °C.

Regarding `N=C(N)NCCCCCOc1cccc2c1NC(=O)C(CC(=O)O)C2` (stereo not shown) (as salt: salt) [Example 250, [8-(5-Guanidino-pentoxy)-2-oxo-1,2,3,4-tetrahydro-quinolin-3-yl]-acetic Acid], the melting point lay in the range of 126 to 131 °C.

For `N=C(N)NCCOc1ccc2c(c1)NC(=O)C(CC(=O)O)C2` (stereo not shown) [Example 85, [7-(2-Guanidino-ethoxy)-2-oxo-1,2,3,4-tetrahydro-quinolin-3-yl]-acetic Acid Hydrochloride], the remaining activity at 200 µM on αIIbβ3 integrin (setting [2]) was determined as 93.3%. Besides, the results for the IC50 (at αVβ3 integrin; in data set [1]) were 111 µM and 15.7 µM, respectively. In addition, the inhibition at 273 µM in the data set with osteoclasts (Rattus norvegicus, Osteoclast, @ 273 μM) is 33%.

As for `N=C(N)NCCCC#Cc1ccc2c(c1)NC(=O)C(CC(=O)O)C2` (stereo not shown) [Example 101, [7-(5-Guanidino-pent-1-ynyl)-2-oxo-1,2,3,4-tetrahydro-quinolin-3-yl]-acetic Acid Trifluoroacetate], the IC50 at αIIbβ3 integrin was determined as 107 µM; at αVβ3 integrin, 11.5 µM; in data set [1], 8.9 µM. Moreover, in the data set on osteoclasts (Rattus norvegicus, Osteoclast, @ 221 μM), the inhibition at 221 µM stood at 51%.

As for `N=C(N)NCCNC(=O)c1ccc2c(c1)NC(=O)C(CC(=O)O)C2` (stereo not shown) [Example 200, [7-(2-Guanidino-ethylcarbamoyl)-2-oxo-1,2,3,4-tetrahydro-quinolin-3-yl]-acetic Acid Hydrochloride], the remaining activity at 200 µM at αIIbβ3 integrin (setting [2]) turned out to be 94%. Also, on αVβ3 integrin, the IC50 stood at 145 µM. Also, in data set [1] (@ 100 μM, % Max = percentage of the specific binding, read-out: (αVβ3) RECEPTOR BINDING, % @ concentration), the remaining activity at 100 µM turned out to be 31.4%. Besides, in the data set on osteoclasts (Rattus norvegicus, Osteoclast, @ 254 μM), the inhibition at 254 µM worked out at 20%.

For the molecule `N=C(N)NCCCNC(=O)c1ccc2c(c1)NC(=O)C(CC(=O)O)C2` (stereo not shown) [Example 201, [7-(3-Guanidino-propylcarbamoyl)-2-oxo-1,2,3,4-tetrahydro-quinolin-3-yl]-acetic Acid Hydrochloride], the remaining activity at 200 µM at αIIbβ3 integrin (setting [2]) came out at 85%. Moreover, the IC50 on αVβ3 integrin came to 25.4 µM; in data set [1], 5.8 µM. The inhibition at 256 µM with osteoclasts (Rattus norvegicus, Osteoclast, @ 256 μM) was 45%.

With `N=C(N)NCCCCNC(=O)c1ccc2c(c1)NC(=O)C(CC(=O)O)C2` (stereo not shown) [Example 202, [7-(4-Guanidino-butylcarbamoyl)-2-oxo-1,2,3,4-tetrahydro-quinolin-3-yl]-acetic Acid Hydrochloride], the half-maximal inhibitory concentration (IC50) on αIIbβ3 integrin was found to be 87 µM; at αVβ3 integrin, 86 µM. For the same molecule, the remaining activity at 30 µM in data set [1] (setting [3]) was found to be 50%. The inhibition at 240 µM in the data set on osteoclasts (Rattus norvegicus, Osteoclast, @ 240 μM) was found to be 37%.

As for `O=C(O)CC1CCc2cc(OCCCNC3=NCCCN3)ccc2C1` (stereo not shown) [Example 214, {6-[3-(1,4,5,6-Tetrahydro-pyrimidin-2-ylamino)-propoxy]-1,2,3,4-tetrahydro-naphthalen-2-yl}-acetic Acid], the remaining activity at 200 µM at αIIbβ3 integrin (setting [2]) came to 58%. Also, the IC50 worked out at 0.479 µM at αVβ3 integrin and 0.42 µM in data set [1]. Further, the inhibition at 19 µM in the data set on osteoclasts (Rattus norvegicus, Osteoclast, @ 19 μM) was found to be 19%.

For the molecule `COC(=O)CC1CCc2cc(OCCCNC3=NCCCN3)ccc2C1` (stereo not shown) [Example 215], the 50% inhibitory concentration (IC50) came to 151 µM at αIIbβ3 integrin, 37.4 µM on αVβ3 integrin and 2 µM in data set [1]. The inhibition at 200 µM in the data set with osteoclasts (Rattus norvegicus, Osteoclast, @ 200 μM) is 90%.

On to `N=C(N)NCCCOc1ccc2c(c1)CC(CC(=O)O)C(=O)N2` (stereo not shown) [Example 228, [6-(3-Guanidino-propoxy)-2-oxo-1,2,3 4-tetrahydro-quinolin-3-yl]-acetic Acid], for which, on αIIbβ3 integrin (setting [2]), the “Percent of Maximal” value is on record as 83.7@200%. Also, the “(αVβ3) CELL ATTACHMENT, % @ concentration” value on αVβ3 integrin (@ 100 μM, % of maximal attachment) is listed as 88%@ 100. Further, in data set [1] (@ 30 μM, % Max = percentage of the specific binding), the “(αVβ3) RECEPTOR BINDING, % @ concentration” value was 57%@ 30. The “BONE PITTING INHIBITION” value in the data set on osteoclasts (@ 230 μM) was 7%@ 230.

With `N=C(N)NCCCCOc1ccc2c(c1)CC(CC(=O)O)C(=O)N2` (stereo not shown) [Example 229, [6-(4-Guanidino-butoxy)-2-oxo-1,2,3,4-tetrahydro-quinolin-3-yl]-acetic Acid], the 50% inhibitory concentration (IC50) on αIIbβ3 integrin is 146 µM. At αVβ3 integrin (setting [4]), the remaining activity at 100 µM was determined as 82%. Moreover, in data set [1] (setting [3]), the remaining activity at 30 µM stood at 100%. Further, in the data set on osteoclasts (Rattus norvegicus, Osteoclast, @ 214 μM), the inhibition at 214 µM stood at 2%.

`N=C(N)NCCCCOc1ccc2[nH]c(=O)c(CC(=O)O)cc2c1` [Example 238, [6-(4-Guanidino-butoxy)-2-oxo-1,2-dihydro-quinolin-3-yl]-acetic Acid Trifluoroacetic Acid Salt]: the remaining activity at 200 µM at αIIbβ3 integrin (setting [2]) came to 94%. The remaining activity at 20 µM at αVβ3 integrin (@ 20 μM, % of maximal attachment, read-out: (αVβ3) CELL ATTACHMENT, % @ concentration) amounted to 102%. For the same molecule, the remaining activity at 100 µM at αVβ3 integrin (setting [4]) was 97.9%. Further, the remaining activity at 30 µM in data set [1] (setting [3]) turned out to be 100%. The inhibition at 215 µM in the data set on osteoclasts (Rattus norvegicus, Osteoclast) was -20%.

Turning to `N=C(N)NCCCCCOc1cccc2c1NC(=O)C(CC(=O)O)C2` (stereo not shown) [Example 250, [8-(5-Guanidino-pentoxy)-2-oxo-1,2,3,4-tetrahydro-quinolin-3-yl]-acetic Acid], the remaining activity at 200 µM on αIIbβ3 integrin (setting [2]) stood at 69%. Also, on αVβ3 integrin (@ 10 μM, % of maximal attachment, read-out: (αVβ3) CELL ATTACHMENT, % @ concentration), the remaining activity at 10 µM came to 90%. The remaining activity at 100 µM on αVβ3 integrin (setting [4]) was 89%. Moreover, the remaining activity at 30 µM in data set [1] (setting [3]) is 102%. For the same molecule, the inhibition at 215 µM in the data set with osteoclasts (Rattus norvegicus, Osteoclast) was -5%.

The record behind these values is patent US20030109523A1, “Bicyclic antagonists selective for the alphavbeta3 integrin” (Wyeth, priority 1999, published 2003).
